Some test systems named below: 786-0; A549; ACHN; BT-549; DU-145; EKVX; HCT-116; K562; LOX IMVI; MDA-MB-231; Malme-3M; NCI-H226; NCI/ADR-RES; RPMI-8226; SF-268; SK-MEL-2; SK-OV-3; SNB-19; SNB-75; SW-620.
Test in all cases: NCI-60 cell line screen, 48 h

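Assay format: 96-well plates, 48-hour exposure. GI50: concentration for 50% inhibition of growth.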 Calls of active or inactive are those of the source. Rule as the data show it: active = GI50 up to about 1.1 µM and inactive = higher.

For the compound `C/C(=N/S(=O)(=O)c1ccc(Cl)c(Cl)c1)OCC(C)(C)C`, the GI50 in the assay with 786-0, with A549, in the assay on ACHN, in the assay on BT-549, with DU-145 and with EKVX was > 100 µM (inactive) each time. The GI50 in the assay with HCT-116, in the assay with K562, with LOX IMVI, in the assay on MDA-MB-231, with Malme-3M and with NCI-H226 was > 100 µM (inactive) throughout. In addition, the GI50 in the assay with NCI/ADR-RES, in the assay on RPMI-8226, in the assay with SF-268, with SK-MEL-2, in the assay on SK-OV-3 and in the assay with SNB-19 was > 100 µM (inactive) throughout. For the same compound, the GI50 in the assay with SNB-75 and in the assay on SW-620 was > 100 µM (inactive) throughout.

In the case of `CC(Cc1ccc(O)cn1)(NC(=O)c1ccccc1)C(=O)O` (stereo not given), the GI50 in the assay with 786-0, in the assay on A549, in the assay on ACHN, in the assay with BT-549, in the assay on DU-145 and with EKVX was > 100 µM (inactive) each time. Besides, the GI50 in the assay on HCT-116, in the assay on K562, in the assay on LOX IMVI, in the assay with MDA-MB-231, with Malme-3M and in the assay with NCI-H226 was > 100 µM (inactive) throughout. The GI50 in the assay on NCI/ADR-RES, in the assay on RPMI-8226, in the assay with SF-268, in the assay on SK-MEL-2, with SK-OV-3 and with SNB-19 was > 100 µM (inactive) each time. The GI50 in the assay with SNB-75 was 40.4 µM (inactive); in the assay with SW-620, > 100 µM (inactive).

As to `CC(=O)c1c(C(F)(F)F)[n+]([O-])c2cc(Cl)c(Cl)cc2[n+]1[O-]`, the GI50 with 786-0 was 0.168 µM (active); in the assay on A549 it was 0.575 µM (active); with ACHN, 0.548 µM (active); in the assay with BT-549, 0.211 µM (active); in the assay with DU-145 it was 1.26 µM (inactive); in the assay with EKVX, 1.29 µM (inactive). The GI50 is 0.249 µM (active) in the assay with HCT-116; 0.977 µM (active) in the assay on K562; 0.157 µM (active) in the assay with LOX IMVI; 1.3 µM (inactive) in the assay on MDA-MB-231; 0.685 µM (active) in the assay on Malme-3M; 1.46 µM (inactive) in the assay on NCI-H226. In addition, the GI50 in the assay with NCI/ADR-RES is 1.5 µM (inactive); in the assay on RPMI-8226, 0.129 µM (active); in the assay with SF-268, 1.15 µM (inactive); in the assay with SK-MEL-2 it was 1.19 µM (inactive); in the assay with SK-OV-3, 1.46 µM (inactive); in the assay with SNB-19, 0.83 µM (active). The figures for the GI50 in the assay on SNB-75 and in the assay on SW-620 were 1.07 µM (active) and 0.393 µM (active), respectively.

As for `COC(=O)c1ccc([N+](=O)[O-])c(O)c1`, the GI50 in the assay on 786-0, in the assay on A549, in the assay on ACHN, in the assay on BT-549, in the assay on DU-145 and with EKVX was > 100 µM (inactive) each time. Besides, the GI50 in the assay on HCT-116, in the assay with K562, in the assay on LOX IMVI, with MDA-MB-231, with Malme-3M and in the assay with NCI-H226 was > 100 µM (inactive) throughout. In addition, the GI50 in the assay on NCI/ADR-RES, in the assay with RPMI-8226, with SF-268, with SK-MEL-2, in the assay on SK-OV-3 and in the assay with SNB-19 was > 100 µM (inactive) throughout. For the same compound, the GI50 in the assay with SNB-75 and with SW-620 was > 100 µM (inactive) each time.

For the compound `O=C1/C(=C/c2cccnc2)C(n2cccc2)c2c(Br)sc(Br)c21` (stereo not given), the GI50 is 2.55 µM (inactive) in the assay with 786-0; 15.6 µM (inactive) with A549; 3.28 µM (inactive) in the assay with ACHN; 9.57 µM (inactive) in the assay with BT-549; 1.94 µM (inactive) in the assay with DU-145; 2 µM (inactive) in the assay with EKVX. Besides, the GI50 in the assay on HCT-116 is 2.26 µM (inactive); in the assay on K562 it was 2.17 µM (inactive); in the assay with LOX IMVI, 1.93 µM (inactive); in the assay with MDA-MB-231 it was 1.8 µM (inactive); in the assay on Malme-3M, 3.01 µM (inactive); in the assay with NCI-H226 it was 41.3 µM (inactive). Also, the GI50 was 7.43 µM (inactive) in the assay on NCI/ADR-RES; 1.95 µM (inactive) with RPMI-8226; 2.13 µM (inactive) with SF-268; 2.26 µM (inactive) in the assay on SK-MEL-2; 15.8 µM (inactive) in the assay on SK-OV-3; 4.7 µM (inactive) in the assay with SNB-19. In addition, the results for the GI50 in the assay on SNB-75 and in the assay with SW-620 were 2 µM (inactive) and 2.32 µM (inactive), respectively.

For the compound `CC(=O)OC(/C=C/c1ccccc1)=C(OC(C)C)/C1=C(\c2ccccc2)SCCCSC1=O`, the GI50 with 786-0 is > 100 µM (inactive); in the assay on A549, > 100 µM (inactive); in the assay with ACHN, > 100 µM (inactive); with BT-549, 44.6 µM (inactive); with DU-145 it was > 100 µM (inactive); with EKVX, 53.2 µM (inactive). Further, the GI50 with HCT-116, in the assay on K562, in the assay with LOX IMVI, in the assay with MDA-MB-231, in the assay with Malme-3M and in the assay with NCI-H226 was > 100 µM (inactive) in each case. Also, the GI50 was > 100 µM (inactive) with NCI/ADR-RES; 35.6 µM (inactive) in the assay with RPMI-8226; > 100 µM (inactive) in the assay on SF-268; > 100 µM (inactive) with SK-MEL-2; > 100 µM (inactive) with SK-OV-3; > 100 µM (inactive) in the assay on SNB-19. Besides, the GI50 with SNB-75 was 52.6 µM (inactive); in the assay with SW-620, > 100 µM (inactive).

With `CC(=O)OCC1OC(n2c(S)nc(-c3ccccc3)c(C#N)c2=O)C(OC(C)=O)C(OC(C)=O)C1OC(C)=O` (stereo not given), the GI50 with 786-0, in the assay with A549, with ACHN, in the assay on BT-549, in the assay on DU-145 and with EKVX was > 100 µM (inactive) throughout. Besides, the GI50 with HCT-116, with K562, in the assay on LOX IMVI, with MDA-MB-231, in the assay with Malme-3M and with NCI-H226 was > 100 µM (inactive) in each case. Further, the GI50 in the assay with NCI/ADR-RES, in the assay on RPMI-8226, with SF-268, with SK-MEL-2, with SK-OV-3 and in the assay with SNB-19 was > 100 µM (inactive) each time. Moreover, the GI50 is 98.9 µM (inactive) in the assay with SNB-75 and > 100 µM (inactive) with SW-620.

For `CN(C)CCOc1ccc(-c2c(Oc3ccc(Cl)cc3)c(=O)oc3ccccc23)cc1`, the GI50 in the assay on 786-0 is 4.27 µM (inactive); in the assay with A549, 4.97 µM (inactive); with ACHN, 18.6 µM (inactive); in the assay on BT-549 it was 15 µM (inactive); with DU-145, 10.5 µM (inactive); in the assay on EKVX, 12.3 µM (inactive). In addition, the GI50 in the assay with HCT-116 is 3.82 µM (inactive); with K562, 3.84 µM (inactive); in the assay with LOX IMVI it was 6.98 µM (inactive); with MDA-MB-231, 7.78 µM (inactive); with Malme-3M, 5.83 µM (inactive); in the assay on NCI-H226, > 35.6 µM (inactive). In addition, the GI50 is > 35.1 µM (inactive) in the assay with NCI/ADR-RES; 8.43 µM (inactive) in the assay on RPMI-8226; 8.69 µM (inactive) in the assay with SF-268; 7.59 µM (inactive) with SK-MEL-2; 10.4 µM (inactive) in the assay on SK-OV-3; 16.9 µM (inactive) in the assay on SNB-19. In addition, the GI50 in the assay on SNB-75 was 6.56 µM (inactive); in the assay on SW-620 it was > 23.5 µM (inactive).

Regarding `O=C(O)C1C2C=CC(O2)C1C(=O)NCc1ccccn1` (stereo not given), the GI50 with 786-0, in the assay with A549, in the assay with ACHN, with BT-549, in the assay on DU-145 and in the assay on EKVX was > 100 µM (inactive) in each case. Besides, the GI50 in the assay with HCT-116, with K562, in the assay on LOX IMVI, in the assay with MDA-MB-231, in the assay with Malme-3M and in the assay with NCI-H226 was > 100 µM (inactive) each time. Further, the GI50 with NCI/ADR-RES, in the assay with RPMI-8226, in the assay on SF-268, with SK-MEL-2, in the assay with SK-OV-3 and in the assay with SNB-19 was > 100 µM (inactive) in each case. Further, the GI50 in the assay on SNB-75 and with SW-620 was > 100 µM (inactive) each time.

Regarding `CCOCC(=O)N[C@H]1CCc2cc(OC)c(OC)c(OC)c2-c2ccc(SC)c(=O)cc21`, the GI50 in the assay on 786-0 is < 0.01 µM (active); with A549, < 0.01 µM (active); in the assay on ACHN, < 0.0117 µM (active); in the assay on BT-549, < 0.01 µM (active); in the assay with DU-145, < 0.01 µM (active); in the assay on EKVX, 7.94 µM (inactive). Also, the GI50 with HCT-116 is < 0.01 µM (active); with K562, 0.0146 µM (active); in the assay with LOX IMVI it was < 0.01 µM (active); in the assay with MDA-MB-231 it was < 0.01 µM (active); with Malme-3M it was < 0.01 µM (active); in the assay on NCI-H226, 0.0465 µM (active). Moreover, the GI50 in the assay with NCI/ADR-RES is 0.0159 µM (active); in the assay with RPMI-8226, < 0.01 µM (active); in the assay with SF-268, < 0.01 µM (active); in the assay on SK-MEL-2, < 0.01 µM (active); with SK-OV-3 it was 0.0272 µM (active); in the assay with SNB-19, < 0.01 µM (active). The results for the GI50 with SNB-75 and in the assay on SW-620 were 0.0102 µM (active) and < 0.01 µM (active), respectively.

The record behind these values is ChEMBL document CHEMBL1201862, “PubChem BioAssay data set” (2004).
